# Experimental data from patent US20240285585A1, “L-ERGOTHIONEINE AND USES THEREOF” (NANJING NUTRABUILDING BIO-TECH CO., LTD., priority 2021, published 2024).
# System: human polymorphonuclear phagocytes
# Assay: in vitro PMN model: ROS formation triggered by fMLP, dihydrorhodamine fluorescence by flow cytometry
# Type: cell-based
# Description: L-ergothioneine meeting the purity specifications defined herein was tested using in an in vitro PMN model using cells from a healthy blood donor. Minute samples of blood were exposed to L-ergothioneine (0.01-5 g/L) for 24 hours. The cells were then loaded with the dihydrorhodamine dye, which turns fluorescent upon exposure to ROS. Formation of ROS was triggered by addition of the bacterial peptide f-Met-Leu-Phe (fMLP). The samples were treated with a lysing buffer to eliminate most of the red blood cells in the samples, after which the samples were fixed in formalin. The fluorescence intensity of the PMN cells was evaluated by flow cytometry. The low fluorescence intensity of untreated control cells served as a baseline and PMN cells treated with fMLP alone served as a positive control.
# The results are depicted in FIG. 1. […] The percent inhibition is shown as the average±standard deviation of sextuplicate data points for each dose of L-ergothioneine.
compound,measurement,setting,value
"C[N+](C)(C)[C@@H](Cc1c[nH]c(=S)[nH]1)C(=O)[O-] [L-ergothioneine, (2S)-3-(2-thioxo-2,3-dihydro-1H-imidazol-4-yl)-2-(trimethylammonio)-propanoate]",ROS formation in response to the bacterial peptide fMLP,"PMN cells from a healthy blood donor, L-ergothioneine 0.01-5 g/L for 24 hours, compared to fMLP alone",enhanced ROS formation
same,increase in ROS formation compared to the control cultures,"across the 0.6 g/L dose reported in human tissue, 24 hours, fMLP-triggered",remained statistically significant
